We go through seven molecules from US20240270821A1, “GIP/GLP1/GCG TRI-RECEPTOR AGONISTS AND USES THEREOF” (priority 2023, published 2024).

Positions count from the first letter of the chain named. Marks after values point to notes of the source that are not given here. Starred links: 1 amine or outer side, 2 acyl side, 3 side chain; linkers in the order of their positions; H or OH if unused. Non-standard residues stand in square brackets, D forms with d. Groups on a side chain read outwards from the residue. No end group written: not given here. *: point of attachment. C20 diacid = O=C(O)CCCCCCCCCCCCCCCCCCC(=O)*; Phe(4-CN) = N#Cc1ccc(C[C@H](N)C(=O)O)cc1; αMePhe(2-F) = C[C@](N)(Cc1ccccc1F)C(=O)O; γGlu = O=C(O)[C@H](CCC(=O)[*:2])N[*:1]; εLys = N[C@@H](CCCCN[*:1])C(=O)[*:2]; αMeL = CC(C)C[C@](C)(N)C(=O)O; AEEA = NCCOCCOCC(=O)O; Aib = CC(C)(N)C(=O)O

As usually defined, the EC50 is the midpoint of the concentration-response curve. The term CL/F denotes the apparent clearance, not corrected for the fraction that reaches the circulation. What is called half-life is the time needed for the level to fall by half in the phase considered.

In one series the target is hGcgR (Homo sapiens, UniProt P47871). Nature of the series: Functional cAMP activation in the presence of 0.1% casein (no HSA). The class given is cell-based. The note with it: in the presence of 0.1% casein (no HSA); geometric mean; read-out: Relative cAMP EC50, hGcgR.
hGcgR, sequence (P47871 26-477): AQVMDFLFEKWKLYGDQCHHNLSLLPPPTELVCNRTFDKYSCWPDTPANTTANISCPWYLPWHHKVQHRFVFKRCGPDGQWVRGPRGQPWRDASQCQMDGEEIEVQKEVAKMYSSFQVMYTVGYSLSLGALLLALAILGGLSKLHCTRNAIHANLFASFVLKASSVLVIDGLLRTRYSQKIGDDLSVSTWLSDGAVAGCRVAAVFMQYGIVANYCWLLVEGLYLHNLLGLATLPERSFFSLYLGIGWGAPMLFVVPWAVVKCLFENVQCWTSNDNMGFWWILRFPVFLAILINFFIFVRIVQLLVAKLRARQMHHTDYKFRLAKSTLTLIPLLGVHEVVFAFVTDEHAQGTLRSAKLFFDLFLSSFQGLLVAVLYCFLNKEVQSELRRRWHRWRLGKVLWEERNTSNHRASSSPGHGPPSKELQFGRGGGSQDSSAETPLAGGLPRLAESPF
Series [1] addresses T1, hGIPR (Homo sapiens, UniProt P48546).
T1 sequence (P48546 22-466): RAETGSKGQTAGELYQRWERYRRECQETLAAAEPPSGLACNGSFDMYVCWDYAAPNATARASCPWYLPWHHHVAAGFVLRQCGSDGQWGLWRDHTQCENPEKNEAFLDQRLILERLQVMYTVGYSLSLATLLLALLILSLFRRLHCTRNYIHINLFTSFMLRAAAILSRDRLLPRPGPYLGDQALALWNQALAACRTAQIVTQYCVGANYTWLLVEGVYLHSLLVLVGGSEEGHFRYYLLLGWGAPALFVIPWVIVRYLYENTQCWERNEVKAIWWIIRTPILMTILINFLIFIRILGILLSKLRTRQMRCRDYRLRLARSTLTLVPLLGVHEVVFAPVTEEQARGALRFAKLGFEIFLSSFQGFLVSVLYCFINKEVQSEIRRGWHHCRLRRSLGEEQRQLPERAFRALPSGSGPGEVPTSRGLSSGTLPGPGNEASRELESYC
The series is described as above. The class given is cell-based. The note with it: in the presence of 0.1% casein (no HSA); geometric mean; read-out: Relative cAMP EC50, hGIPR.

In series [2] the target is T2, hGLP-1R (Homo sapiens, UniProt P43220). Described as above. To be noted: in the presence of 0.1% casein (no HSA); geometric mean; read-out: Relative cAMP EC50, hGLP-1R. The class given is cell-based.
Target sequence in this assay (P43220 24-463): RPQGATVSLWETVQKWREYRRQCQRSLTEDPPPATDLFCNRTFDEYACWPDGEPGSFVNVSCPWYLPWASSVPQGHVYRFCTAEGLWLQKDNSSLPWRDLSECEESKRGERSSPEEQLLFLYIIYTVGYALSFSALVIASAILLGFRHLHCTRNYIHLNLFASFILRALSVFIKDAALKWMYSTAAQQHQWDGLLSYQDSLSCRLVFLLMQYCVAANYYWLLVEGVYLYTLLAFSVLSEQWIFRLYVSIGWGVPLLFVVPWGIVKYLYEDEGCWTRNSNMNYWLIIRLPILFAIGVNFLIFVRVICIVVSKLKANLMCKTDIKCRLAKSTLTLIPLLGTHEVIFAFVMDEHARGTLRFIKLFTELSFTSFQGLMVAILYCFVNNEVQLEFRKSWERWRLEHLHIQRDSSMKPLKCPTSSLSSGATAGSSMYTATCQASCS
For series [3], the target named is T2, hGLP-1R. As to the kind of experiment: Functional cAMP activity in the presence of 1% HSA. The class given is cell-based. To be noted: read-out: cAMP Rel EC50, hGLP-1R.
Target sequence in this assay (P43220 24-463): as above
A further series addresses human GLP1-R (Homo sapiens, UniProt P43220). Nature of the series: GLP1-R internalization assay in HEK293 cells. The class given is cell-based. To be noted: for EC50: HEK293 cells expressing SNAP-GLP-1R, read-out: GLP1R Internalization EC50; for Internalization % TOP: normalized to maximum concentration of GLP-1 (100%).
The target of series [4] is T1, hGIPR. As to the kind of experiment: Functional cAMP activity in the presence of 1% HSA. The class given is cell-based. The note with it: read-out: cAMP Rel EC50, hGIPR.
Series [5] in a line: Pharmacokinetics in male Sprague Dawley rats, single subcutaneous administration. To be noted: rat, in vivo, sc, 10 nmol/kg.
Experimental: The pharmacokinetics of the exemplary analogs are evaluated following a single subcutaneous (SC) administration of 10 nmol/kg (dissolved in 40 mM Tris pH8) or single 4 mg/kg (mixed with 250 mM sodium decanoate/C10 in 40 mM Tris pH8) intrajejunal (IJ) administration to male Sprague Dawley rats. Blood samples are collected over 96 hours following SC administration and 72 hours following IJ dosing, and resulting individual plasma concentrations are used to calculate pharmacokinetic parameters. Peptide plasma (K3 EDTA) concentrations are determined using a qualified LC/MS method that measured the intact mass of the analog. Each peptide and an analog as an internal standard are extracted from rat plasma using methanol. A High Resolution Instrument was used for LC/MS detection.
Series [6] is described as follows: Body weight in diet-induced obese C57BL/6 mice. The class given is in vivo. The note with it: percent of starting weight, DIO mice, mean ± SEM n=5. In a few lines:
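Male C57BL/6 DIO mice (41-50 g, 5 per group, randomized by weight) on calorie-rich diet received subcutaneous doses 30-90 min before dark onset, QD or Q3D for 9-16 days. Body weight measured daily, expressed as percent of starting weight, mean±SEM.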

Another series has as its target human GcgR (Homo sapiens, UniProt P47871). As to the kind of experiment: Functional cAMP activity in the presence of 1% HSA. The class given is cell-based. The note with it: read-out: cAMP Rel EC50, hGcgR.
Series [7] has as its target T2, hGLP-1R. Nature of the series: GLP-1R CHO cell β-arrestin recruitment assay.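 As to all read-outs here: luminescence read after 90 min peptide exposure at 37 °C and a further 60 min with detection reagent at room temperature.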 The class given is cell-based. On the set-up: host or cells: CHO-K1 (PathHunter, assay-ready frozen cells). The note with it: for EC50: CHO-K1 PathHunter, β-arrestin-2, 0.1% casein, read-out: hGLP1R β-arrestin Rel EC50; for % Stimulation Max: normalized to GLP-1(7-36) as maximum control. For orientation: Activated receptors often draw arrestin, which recruitment assays turn into a signal.
Target sequence in this assay (P43220 24-463): as above
Target sequence in this assay (P32121 whole entry partner): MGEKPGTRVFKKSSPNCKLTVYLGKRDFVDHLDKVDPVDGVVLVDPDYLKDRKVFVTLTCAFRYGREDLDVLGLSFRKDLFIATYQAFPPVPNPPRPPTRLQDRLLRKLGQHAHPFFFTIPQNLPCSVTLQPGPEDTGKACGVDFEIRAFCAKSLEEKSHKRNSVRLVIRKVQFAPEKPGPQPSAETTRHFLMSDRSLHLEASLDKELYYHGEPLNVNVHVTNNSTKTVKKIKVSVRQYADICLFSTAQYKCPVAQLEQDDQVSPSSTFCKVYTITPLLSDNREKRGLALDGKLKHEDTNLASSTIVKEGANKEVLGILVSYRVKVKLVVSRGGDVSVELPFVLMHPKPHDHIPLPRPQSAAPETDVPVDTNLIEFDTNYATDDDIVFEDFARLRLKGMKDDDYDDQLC
Experimental: CHO-KI cells expressing Pro-Link-tagged Human GLP-1R and enzyme-acceptor-tagged β-arrestin-2 may be obtained from DiscoveRx and prepared as assay-ready frozen cells. Test peptides are solubilized in DMSO and serial dilutions are performed using the Echo acoustic dispenser (LabCyte). Assay media is the PathHunter Cell Assay Buffer (DiscoveRx) containing 0.1% w/v hydrolyzed Casein (Sigma). […] Plates are incubated for 90 minutes in a 37′C/5% C02 incubator and 10 μl of PathHunter detection reagent is added (DiscoveRx) and plates are incubated at room temperature for 60 minutes. Luminescence signal is measured. Peptide concentration-response curves fit to a four-parameter logistic model to calculate potency as an EC50.

Series [8] concerns the target human glucagon receptor (human) (UniProt P47871). As to the kind of experiment: cell-based or functional assay.
Series [9] addresses T3, human GIP receptor (human) (UniProt P48546).
T3 sequence (looked up): T1 sequence (P48546 22-466)
As to the kind of experiment: cell-based or functional assay.

Series [10] has as its target T2, hGLP-1R. Nature of the series: cell-based or functional assay.
Target sequence in this assay (P43220 24-463): as the sequence (P43220 24-463) above
In series [11] the target is human glucagon receptor (hGcgR) (human) (UniProt P47871). As to the kind of experiment: cell-based or functional assay.
human glucagon receptor (hGcgR) (human), sequence (P47871 26-477): as the sequence (P47871 26-477) above
For series [12], the target named is human GLP-1 receptor (hGLP-1R) (human) (UniProt P43220). Nature of the series: cell-based or functional assay.
human GLP-1 receptor (hGLP-1R) (human), sequence (P43220 24-463): as the sequence (P43220 24-463) above
Series [13] has as its target T4, human GIP receptor (hGIPR) (human) (UniProt P48546).
T4 sequence (looked up): T1 sequence (P48546 22-466)
Nature of the series: cell-based or functional assay.

Series [14] has as its target human GLP-1R (SNAP-GLP-1R expressed in HEK293 cells) (human) (UniProt P43220). As to the kind of experiment: cell-based or functional assay.
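For Relative cAMP EC50, hGIPR in this document: intracellular cAMP rise after 30 min at 37 °C read by HTRF against a standard curve, scaled between buffer alone (0%) and top control ligand concentration (100%), four-parameter fit.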
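For Relative cAMP EC50, hGLP-1R in this document: intracellular cAMP rise after 30 min at 37 °C read by HTRF, normalized between buffer only (0%) and maximal control ligand (100%), four-parameter variable-slope fit.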
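For Relative cAMP EC50, hGcgR in this document: intracellular cAMP rise after 30 min at 37 °C, read by HTRF against a cAMP standard curve, scaled from buffer only (0%) to maximal control ligand response (100%).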

human GLP1-R, sequence (P43220 24-463): as above
human GcgR, sequence (P47871 26-477): as the sequence (P47871 26-477) above
human glucagon receptor (human), sequence (P47871 26-477): as above
human GLP-1R (SNAP-GLP-1R expressed in HEK293 cells) (human), sequence (P43220 24-463): as the sequence (P43220 24-463) above

On to “H-Y[Aib]QGTFTSDYSI[αMeL]LDKK([AEEA-γGlu-C20 diacid])AQRAFIEYLLEGGPSSGEPPPSEG-NH2 [Example 289]”, for which the EC50 at hGcgR is 5.02 nM; at hGIPR [1], 0.382 nM; at hGLP-1R [2], 0.449 nM; on hGLP-1R [3], 139 nM; on human GLP1-R it was 10.9 nM; at hGIPR [4], 105 nM. The concentration giving a half-maximal response (EC50) on human GcgR is 1750 nM; at hGLP-1R [7], 5.96 nM. Also, at human GLP1-R, the “Internalization % TOP” value came to 86.5%. In addition, the CL/F in [5] is 0.0645 mL/min/kg. The molecule also showed a half-life in series [5] of 22.4 h. Further, the “Body weight (%)” value in series [6] (10 nmol/kg SC Q3D, 14 days) is on record as 82.32 ± 1.25 %; in [6] (10 nmol/kg SC QD, 16 days) it was 60.94 ± 1.87 %. Moreover, the “% Stimulation Max” value on hGLP-1R [7] came out at 47.5%.
Take “Y[Aib]QGTFTSDFSK[αMeL]LDKK([AEEA-γGlu-C20 diacid])AQ[Aib]AFIEYLLAGGPSSGEPPPSGE-NH2 [Example 2]”: the EC50 at hGcgR is 4.29 nM; at hGIPR [1], 0.207 nM; at hGLP-1R [2], 1.65 nM; on hGLP-1R [3], 631 nM; at human GLP1-R, 49.5 nM; on hGIPR [4], 75.5 nM. Besides, the values for the EC50 at human GcgR and at hGLP-1R [7] were 1630 nM and greater than 10000 nM, respectively. Further, the “Internalization % TOP” value on human GLP1-R is recorded as 66.8%. The apparent clearance CL/F in series [5] is 0.143 mL/min/kg. The molecule also showed a half-life in [5] of 12.1 h. The “Body weight (%)” value in series [6] (10 nmol/kg SC Q3D, 14 days) was 77.90 +/− 1.90**** %. The “% Stimulation Max” value on hGLP-1R [7] is given as 12.3%.
On to “H-Y[Aib]QGT[αMePhe(2-F)]TSD[Phe(4-CN)]SILLDKQAQK([AEEA-AEEA-γGlu-C20 diacid])AFIEYLLEGGPSSGEPPPSEG-NH2 [Example 321]”, for which the 50% effective concentration (EC50) on hGcgR worked out at 4.49 nM; on hGIPR [1], 0.0912 nM; at hGLP-1R [2] it was 0.798 nM; at hGLP-1R [3], 110 nM; at human GLP1-R, 27.1 nM; on hGIPR [4], 13 nM. Moreover, the figures for the concentration for a half-maximal effect (EC50) at human GcgR and at hGLP-1R [7] were 836 nM and 8.78 nM, respectively. The “Internalization % TOP” value on human GLP1-R is given as 92.8%. The molecule also gave an apparent clearance (CL/F) in series [5] of 0.137 mL/min/kg. In [5], this molecule showed a half-life of 26.2 h. In [6] (10 nmol/kg SC Q3D, 14 days), the “Body weight (%)” value is reported as 87.14 +/− 0.59*** %. Moreover, the “% Stimulation Max” value on hGLP-1R [7] was 90.1%.
In the case of “H-Y[Aib]QGTFTSDYSI[αMeL]LDKQAAK([εLys-εLys-γGlu-C20 diacid])QFVEWLLA[Aib]GPSSGEPPPSEG-NH2 [Example 329]”, the 50% effective concentration (EC50) at hGcgR stood at 3.47 nM; at hGIPR [1] it was 0.207 nM; at hGLP-1R [2] it was 0.926 nM; at hGLP-1R [3] it was 204 nM; at human GLP1-R, 34 nM; at hGIPR [4], 42.6 nM. The results for the EC50 at human GcgR and on hGLP-1R [7] were 842 nM and 6.11 nM, respectively. Besides, the “Internalization % TOP” value on human GLP1-R is recorded as 91.1%. Besides, the CL/F in [5] is 0.322 mL/min/kg. The molecule also showed a half-life in series [5] of 12.6 h. Besides, the “% Stimulation Max” value on hGLP-1R [7] was found to be 74.5%.

B1: Example 579 (peptide)
chain: YXQGTXTSDXSILLDKKAQXAFIEWLQEGGPSSGEPPPSGTEE
modifications: non-natural residues; lysine acylated with C18 diacid; C-terminal amide; synthetic construct; SITE 2: note = 2-Aminoisobutyric Acid; SITE 6: note = alpha-methyl-2-fluoro-L-phenylalanine; SITE 10: note = 3-(4-Pyridyl)-L-alanine; SITE 17: note = Lysine is chemically modified through conjugation of the epsilon-amino group of the Lysine side chain with (gamma-Glu)2-CO-(CH2)1
As for B1, the values for the cAMP Rel EC50, nM (presence of 1% HSA) (in [8]; in [9]; with hGLP-1R [10]) were 679 nM, 3.79 nM and 67.3 nM, respectively. Besides, the Relative cAMP EC50 in series [11] was found to be 2.36 nM; in series [12] it was 0.252 nM; in [13], 0.0171 nM.

B2: Example 548 (peptide)
chain: YXQGTXTSDXXILLDXKAQXXFIEYLIEGGPSSGEPPPSGTGE
modifications: synthetic construct; SITE 2: note = 2-Aminoisobutyric Acid; SITE 6: note = alpha-methyl-2-fluoro-L-phenylalanine; SITE 10: note = 3-(4-Pyridyl)-L-alanine; SITE 11: note = alpha-methyl-L-serine; SITE 16: note = L-ornithine; SITE 17: note = Lysine is chemically modified through conjugation of the epsi
On to B2, for which the cAMP Rel EC50, nM (presence of 1% HSA) is 295 nM in series [8], 3.48 nM in [9] and 38 nM in the series with hGLP-1R [10]. Besides, the GLP1R Internalization EC50 in series [14] was determined as 17.8 nM. Besides, in series [14], the Internalization % TOP came out at 109%. Also, the Relative cAMP EC50 is 3.94 nM in series [11], 0.478 nM in series [12] and 0.0547 nM in series [13].

B3: Example 583 (peptide)
chain: B1 chain with K16X, W25Y
modifications: acylated lysine (γ-Glu)2 C18 diacid; non-natural residues; C-terminal amide; synthetic construct; SITE 2: note = 2-Aminoisobutyric Acid; SITE 6: note = alpha-methyl-2-fluoro-L-phenylalanine; SITE 10: note = 3-(4-Pyridyl)-L-alanine; SITE 16: note = L-ornithine; SITE 17: note = Lysine is chemically modified through conjugation of the epsilon-amino group of the Lysine side chai
Regarding B3, the cAMP Rel EC50, nM (presence of 1% HSA) in series [8] came to 1250 nM; in [9], 12.3 nM; with hGLP-1R [10] it was 71 nM. Also, the figures for the Relative cAMP EC50 in [11], in series [12] and in series [13] were 6.32 nM, 0.542 nM and 0.0692 nM, respectively.
